For 32 compounds, Emax results are on record in US20260256751A1, “COMBINATION OF BETA-2-ADRENERGIC RECEPTOR AGONISTS AND GLP-1 RECEPTOR AGONISTS FOR USE IN TREATING HYPERGLYCAEMIA” (ATROGI AB, priority 2023, published 2026).

The test system of assay [1] is differentiated L6-myotubes. Briefly: cAMP production relative to isoprenaline (Biological example 2 of WO 2019/053427). The format is cell-based. The settings on record: 0.25 h, compound at 10 μM, activity relative to isoproterenol at 10 μM. In outline: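 Differentiated L6 myotubes stimulated 15 min with test compound or isoprenaline, each at final 1×10^−5 M, in HBSS with 1% BSA, 5 mM HEPES, 1 mM IBMX, pH 7.4. cAMP production by the compound expressed relative to that induced by the same concentration of isoprenaline.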
For orientation: Cyclic AMP is a second messenger, typically raised through Gs and lowered through Gi signalling.

Assay [2] deals with differentiated L6-myotubes. Put plainly: Glucose uptake screen (Biological example 1 of WO 2019/053427). The format is cell-based. The conditions noted are these: compound at 10 μM, activity relative to isoproterenol at 10 μM, read-out: Biological example 1 of WO 2019/053427 (GU). In outline:
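Rat L6 myoblasts were differentiated into myotubes over 7 days in 2% FBS, then serum-starved overnight. Cells were stimulated with 1×10^−5 M compound plus β2 antagonist ICI-118551 for 1 h 40 min and re-dosed for 20 min in glucose-free medium. Uptake of 50 nM ^3H-2-deoxyglucose over 10 min was counted after NaOH lysis.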

For `COC(=O)[C@H]1CC[C@@H](C(C)(C)NC[C@H](O)c2cncc(F)c2)CC1` [Compound 321, (1S,4s)-8-[(R)-2-(5-fluoro-3-pyridyl)-2-hydroxyethylamino]-7-methoxy-p-menthan-7-one], the Emax at 10 µM in assay [1] is less than 25%; in assay [2], 50 to 75%.

Consider `O[C@H](c1cncc(F)c1)[C@H]1CC[C@@H](Cc2ccc(Cl)cc2)N1` [Compound 404, (R)-{(2R,5S)-5-[(p-chlorophenyl)methyl]-2-pyrrolidinyl}(5-fluoro-3-pyridyl)methanol], for which the Emax at 10 µM in assay [1] is less than 25%; in assay [2] it was more than 75%.

In the case of `O[C@H](c1cccc(F)c1)[C@H]1CC[C@H](Cc2ccc(Cl)cc2)N1` [Compound 393, (R)-{(2R,5R)-5-[(p-chlorophenyl)methyl]-2-pyrrolidinyl}(m-fluorophenyl)methanol], the Emax at 10 µM in assay [1] is less than 25%; in assay [2] it was more than 75%.

As to `CC(C)CS(=O)(=O)N[C@H]1CC[C@H](CC(C)(C)NC[C@H](O)c2cncc(F)c2)CC1` [Compound 526, (R)-2-{1,1-dimethyl-2-[(1r,4R)-4-(isobutylsulfonylamino)cyclohexyl]ethylamino}-1-(5-fluoro-3-pyridyl)-1-ethanol], the Emax at 10 µM was less than 25% in assay [1] and 50 to 75% in assay [2].

Consider `CC12CCC([C@H](O)c3cncc(F)c3)(CC1)N2` [Compound 185, (R)-(5-fluoro-3-pyridyl)(4-methyl-7-azabicyclo[2.2.1]hept-1-yl)methanol], for which the Emax at 10 µM in assay [1] is less than 25%; in assay [2], more than 75%.

As to `CNS(=O)(=O)[C@H]1CC[C@@H](CC(C)(C)NC[C@H](O)c2cccc(F)c2)CC1` [Compound 477, (R)-2-{1,1-dimethyl-2-[(1s,4S)-4-(methylaminosulfonyl)cyclohexyl]ethylamino}-1-(m-fluorophenyl)-1-ethanol], the Emax at 10 µM in assay [1] was less than 25%; in assay [2] it was 50 to 75%.

Take `O[C@H](c1cccc(F)c1)[C@H]1CCC2(CC2)N1` [Compound 170, (R)-{(R)-4-aza-5-spiro[2.4]heptyl}(m-fluorophenyl)methanol]: the Emax at 10 µM was less than 25% in assay [1] and 50 to 75% in assay [2].

As to `CS(=O)(=O)N[C@H]1CC[C@@H](C[C@@H]2CC[C@H]([C@@H](O)c3cccc(F)c3)N2)CC1` [Compound 511, (S)-[(2R,5S)-5-{[(1s,4R)-4-(mesylamino)cyclohexyl]methyl}-2-pyrrolidinyl](m-fluorophenyl)methanol], the Emax at 10 µM in assay [1] was less than 25%; in assay [2], 25 to 50%.

As to `CO[C@H]1CC[C@H](C[C@H]2CC[C@H]([C@H](O)c3cccc(F)c3)N2)CC1` [Compound 335, (R)-[(2R,5R)-5-{[(1r,4R)-4-methoxycyclohexyl]methyl}-2-pyrrolidinyl](m-fluorophenyl)methanol], the figures for the Emax at 10 µM in assay [1] and in assay [2] were less than 25% and more than 75%, respectively.

As to `CC(C)(C[C@H]1CC[C@H](O)CC1)NC[C@H](O)c1cncc(F)c1` [Compound 299, (R)-2-{1,1-dimethyl-2-[(1r,4R)-4-hydroxycyclohexyl]ethylamino}-1-(5-fluoro-3-pyridyl)-1-ethanol], the Emax at 10 µM in assay [1] is less than 25%; in assay [2] it was 50 to 75%.

As for `CCC[C@H]1CCC[C@@H]([C@H](O)c2cccc(Cl)c2)N1` [Compound 123, (R)-[(2S,6S)-6-propyl-2-piperidyl](m-chlorophenyl)methanol], the Emax at 10 µM is less than 25% in assay [1] and 25 to 50% in assay [2].

Take `O[C@@H](CNC[C@H]1CC[C@H](OCc2ccccc2)CC1)c1cncc(F)c1` [Compound 273, (R)-1-(5-fluoro-3-pyrdiyl)-2-({[(1r,4R)-4-(benzyloxy)cyclohexyl]methyl}amino)-1-ethanol]: the Emax at 10 µM in assay [1] was less than 25%; in assay [2] it was 25 to 50%.

Regarding `CCC[C@@H]1CCC[C@@H]([C@H](O)c2cccc(F)c2)N1` [Compound 116, (R)-[(2S,6R)-6-propyl-2-piperidyl](m-fluorophenyl)methanol], the results for the Emax at 10 µM in assay [1] and in assay [2] were less than 25% and 25 to 50%, respectively.

Consider `CC(C)(C)NC[C@H](O)c1ccc(F)cn1` [Compound 96, (S)-2-(tert-butylamino)-1-(5-fluoro-2-pyridyl)-1-ethanol], for which the Emax at 10 µM in assay [1] is less than 25%; in assay [2] it was 50 to 75%.

Regarding `CS(=O)(=O)Nc1ccc(CC23CCC([C@H](O)c4cccc(F)c4)(CC2)N3)cc1` [Compound 475, (R)-(m-fluorophenyl)(4-{[p-(mesylamino)phenyl]methyl}-7-azabicyclo[2.2.1]hept-1-yl)methanol], the values for the Emax at 10 µM in assay [1] and in assay [2] were less than 25% and 50 to 75%, respectively.

As for `CC(C)(NC[C@H](O)c1cncc(F)c1)[C@H]1CC[C@H](NS(C)(=O)=O)CC1` [Compound 345, (R)-1-(5-fluoro-3-pyridyl)-2-{1-methyl-1-[(1r,4R)-4-(mesylamino)cyclohexyl]ethylamino}-1-ethanol], the Emax at 10 µM in assay [1] is less than 25%; in assay [2], 25 to 50%.

Consider `Oc1ccc(C(O)CNCCCC2CCCCC2)cc1` (stereo not shown) [Compound 21, 2-(3-cyclohexylpropylamino)-1-(p-hydroxyphenyl)-1-ethanol], for which the Emax at 10 µM was less than 25% in assay [1] and more than 75% in assay [2].

`O[C@@H](CNCCC[C@H]1CC[C@@H](OCc2ccccc2)CC1)c1cncc(F)c1` [Compound 275, (R)-1-(5-fluoro-3-pyridyl)-2-{3-[(1s,4R)-4-(benzyloxy)cyclohexyl]pro-pylamino}-1-ethanol]: the values for the Emax at 10 µM in assay [1] and in assay [2] were less than 25% and 50 to 75%, respectively.

As for `CC(C)(C)NC[C@H](O)c1cncc(Cl)c1` [Compound 138, (R)-2-(tert-butylamino)-1-(5-chloro-3-pyridyl)-1-ethanol], the Emax at 10 µM in assay [1] and in assay [2] was more than 75% each time.

For the compound `CC1(C)C[C@@H]([C@@H](O)c2cccc(F)c2)N1` [Compound 199, (S)-[(S)-4,4-dimethyl-2-azetidinyl](m-fluorophenyl)methanol], the Emax at 10 µM in assay [1] was less than 25%; in assay [2], 25 to 50%.

Turning to `CC(C)(NC[C@H](O)c1cccc(F)c1)[C@H]1CC[C@@H](OCC(=O)O)CC1` [Compound 408, [(1S,4s)-4-{1-[(R)-2-(m-fluorophenyl)-2-hydroxyethylamino]-1-methylethyl}cyclohexyloxy]acetic acid], the Emax at 10 µM is less than 25% in assay [1] and 50 to 75% in assay [2].

On to `O[C@@H](CNCCC[C@H]1CC[C@@H](OCc2ccccc2)CC1)c1cccc(F)c1` [Compound 277, (R)-1-(m-fluorophenyl)-2-{3-[(1s,4R)-4-(benzyloxy)cyclohexyl]pro-pylamino}-1-ethanol], for which the Emax at 10 µM in assay [1] was less than 25%; in assay [2] it was 25 to 50%.

In the case of `CC(C)(CC[C@H]1CC[C@H](C(=O)O)CC1)NC[C@H](O)c1cccc(F)c1` [Compound 348, (1R,4r)-4-{3-[(R)-2-(m-fluorophenyl)-2-hydroxyethylamino]-3-methylbutyl}cyclohexanecarboxylic acid], the Emax at 10 µM in assay [1] and in assay [2] was less than 25% throughout.

Turning to `CC(C)(NC[C@H](O)c1cccc(F)c1)[C@H]1CC[C@H](NS(C)(=O)=O)CC1` [Compound 385, (R)-1-(m-fluorophenyl)-2-{1-methyl-1-[(1r,4R)-4-(mesylamino)cyclohexyl]ethylamino}-1-ethanol], the values for the Emax at 10 µM in assay [1] and in assay [2] were less than 25% and 50 to 75%, respectively.

For `Oc1ccc(C(O)CNCCC2CCCCC2)cc1` (stereo not shown) [Compound 16, 2-(2-cyclohexylethylamino)-1-(p-hydroxyphenyl)-1-ethanol], the results for the Emax at 10 µM in assay [1] and in assay [2] were less than 25% and 25 to 50%, respectively.

Consider `CCCCNCC(O)c1cc(O)cc(O)c1` (stereo not shown) [Compound 26, 5-[2-(butylamino)-1-hydroxyethyl]resorcinol], for which the results for the Emax at 10 µM in assay [1] and in assay [2] were less than 25% and 50 to 75%, respectively.

With `CN(C)S(=O)(=O)[C@H]1CC[C@H](CC(C)(C)NC[C@H](O)c2cccc(F)c2)CC1` [Compound 464, (R)-2-{1,1-dimethyl-2-[(1r,4R)-4-(dimethylaminosulfonyl)cyclohexyl]ethylamino}-1-(m-fluorophenyl)-1-ethanol], the Emax at 10 µM in assay [1] and in assay [2] was 25 to 50% throughout.

Consider `CCC[C@@H](C)NC[C@H](O)c1cccc(F)c1` [Compound 50, (R)-2-[(R)-1-methylbutylamino]-1-(m-fluorophenyl)-1-ethanol], for which the values for the Emax at 10 µM in assay [1] and in assay [2] were less than 25% and more than 75%, respectively.

In the case of `CO[C@H]1CC[C@H](C[C@@H]2CC[C@H]([C@H](O)c3ccccc3F)N2)CC1` [Compound 337, (R)-[(2R,5S)-5-{[(1r,4S)-4-methoxycyclohexyl]methyl}-2-pyrrolidinyl](o-fluorophenyl)methanol], the Emax at 10 µM in assay [1] is less than 25%; in assay [2], more than 75%.

Take `CC1(C)C[C@@H]([C@@H](O)c2ccccc2F)N1` [Compound 205, (S)-[(S)-4,4-dimethyl-2-azetidinyl](o-fluorophenyl)methanol]: the Emax at 10 µM in assay [1] was less than 25%; in assay [2] it was 25 to 50%.

With `CNS(=O)(=O)[C@H]1CC[C@@H](CC(C)(C)NC[C@H](O)c2cncc(F)c2)CC1` [Compound 495, (R)-2-{1,1-dimethyl-2-[(1s,4S)-4-(methylaminosulfonyl)cyclohexyl]ethylamino}-1-(5-fluoro-3-pyridyl)-1-ethanol], the Emax at 10 µM in assay [1] was less than 25%; in assay [2], 50 to 75%.

Consider `CC1(C)CC[C@H]([C@H](O)c2cccc(N)c2F)N1` [Compound 227, (R)-[(R)-5,5-dimethyl-2-pyrrolidinyl](3-amino-2-fluorophenyl)methanol], for which the Emax at 10 µM in assay [1] was less than 25%; in assay [2], more than 75%.
